Assay results: ChEMBL document CHEMBL5465560, “Selectivity Literature for EUbOPEN Chemogenomic Library” (2024)

Tests used:
[1] = biological target: SRSF protein kinase 2 (Homo sapiens) (UniProt P78362); assay: Selectivity interaction (KinomeScan (DiscoverX)) EUB0000229b SRPK2; settings: at 10 µM
[2] = biological target: Beta-1 adrenergic receptor (Homo sapiens, UniProt P08588); assay: Selectivity interaction (GPCR panel (PDSP screen)) EUB0001079a ADRB1; settings: at 10 µM
[3] = biological target: Neuronal acetylcholine receptor subunit beta-2 (Homo sapiens) (UniProt P17787); assay: Selectivity interaction (Eurofins CEREP Diversity Profile (receptors and ion channels)) EUB0000279b CHRNB2; settings: at 10 µM
Neuronal acetylcholine receptor subunit beta-2 (Homo sapiens), sequence (P17787 whole entry, the tested form may be a part): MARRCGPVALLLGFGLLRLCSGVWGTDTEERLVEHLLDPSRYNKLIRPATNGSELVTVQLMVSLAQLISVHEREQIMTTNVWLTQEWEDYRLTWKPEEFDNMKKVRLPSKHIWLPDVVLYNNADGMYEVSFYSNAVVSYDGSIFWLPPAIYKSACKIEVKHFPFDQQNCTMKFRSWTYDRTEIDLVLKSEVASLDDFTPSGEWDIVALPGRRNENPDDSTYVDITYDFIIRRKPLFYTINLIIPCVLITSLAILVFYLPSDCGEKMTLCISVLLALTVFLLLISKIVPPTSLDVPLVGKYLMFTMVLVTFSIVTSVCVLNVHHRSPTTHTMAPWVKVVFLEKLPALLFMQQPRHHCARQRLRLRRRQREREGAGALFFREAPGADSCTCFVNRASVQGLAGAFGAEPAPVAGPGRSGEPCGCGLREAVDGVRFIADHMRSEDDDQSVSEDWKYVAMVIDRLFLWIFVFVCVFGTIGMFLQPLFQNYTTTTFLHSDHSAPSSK

[4] = biological target: T1, Discoidin domain-containing receptor 2 (Homo sapiens) (UniProt Q16832); assay: Selectivity interaction (KinomeScan (DiscoverX)) EUB0001049a DDR2; settings: at 1 µM
T1 sequence (whole entry): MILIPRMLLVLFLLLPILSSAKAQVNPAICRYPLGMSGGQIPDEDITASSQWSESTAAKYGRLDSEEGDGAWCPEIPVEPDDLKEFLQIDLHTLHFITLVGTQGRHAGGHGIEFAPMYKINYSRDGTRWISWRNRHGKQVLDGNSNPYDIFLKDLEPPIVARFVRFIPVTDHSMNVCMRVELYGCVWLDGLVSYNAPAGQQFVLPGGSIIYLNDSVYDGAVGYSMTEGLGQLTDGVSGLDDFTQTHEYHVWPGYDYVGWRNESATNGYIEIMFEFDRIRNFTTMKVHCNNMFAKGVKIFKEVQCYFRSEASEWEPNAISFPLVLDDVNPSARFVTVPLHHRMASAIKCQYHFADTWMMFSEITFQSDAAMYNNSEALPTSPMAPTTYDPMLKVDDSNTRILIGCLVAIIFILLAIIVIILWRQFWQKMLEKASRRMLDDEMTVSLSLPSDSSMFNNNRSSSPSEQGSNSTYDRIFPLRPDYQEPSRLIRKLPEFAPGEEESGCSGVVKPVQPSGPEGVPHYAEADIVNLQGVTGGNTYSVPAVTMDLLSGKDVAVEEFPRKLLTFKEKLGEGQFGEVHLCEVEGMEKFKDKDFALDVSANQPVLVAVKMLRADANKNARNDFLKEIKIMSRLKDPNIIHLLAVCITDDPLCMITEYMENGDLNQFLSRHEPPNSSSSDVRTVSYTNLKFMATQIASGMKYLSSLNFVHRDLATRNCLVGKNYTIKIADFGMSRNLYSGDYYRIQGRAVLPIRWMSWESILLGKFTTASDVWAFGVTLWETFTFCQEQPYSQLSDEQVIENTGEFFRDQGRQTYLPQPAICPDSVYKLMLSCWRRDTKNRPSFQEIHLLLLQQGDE

[5] = biological target: Tyrosine-protein kinase SYK (Homo sapiens, UniProt P43405); assay: Selectivity interaction (Millipore kinase profiler) EUB0000124b SYK; settings: at 10 µM
[6] = biological target: T2, Serine/threonine-protein kinase TAO1 (Homo sapiens) (UniProt Q7L7X3); assay: Selectivity interaction (ActivX KiNativ screen (ex vivo kinase selectivity in human PBMCs)) EUB0001619a TAOK1; format: cell-based; settings: PBMC, at 1 µM
T2 sequence (whole entry): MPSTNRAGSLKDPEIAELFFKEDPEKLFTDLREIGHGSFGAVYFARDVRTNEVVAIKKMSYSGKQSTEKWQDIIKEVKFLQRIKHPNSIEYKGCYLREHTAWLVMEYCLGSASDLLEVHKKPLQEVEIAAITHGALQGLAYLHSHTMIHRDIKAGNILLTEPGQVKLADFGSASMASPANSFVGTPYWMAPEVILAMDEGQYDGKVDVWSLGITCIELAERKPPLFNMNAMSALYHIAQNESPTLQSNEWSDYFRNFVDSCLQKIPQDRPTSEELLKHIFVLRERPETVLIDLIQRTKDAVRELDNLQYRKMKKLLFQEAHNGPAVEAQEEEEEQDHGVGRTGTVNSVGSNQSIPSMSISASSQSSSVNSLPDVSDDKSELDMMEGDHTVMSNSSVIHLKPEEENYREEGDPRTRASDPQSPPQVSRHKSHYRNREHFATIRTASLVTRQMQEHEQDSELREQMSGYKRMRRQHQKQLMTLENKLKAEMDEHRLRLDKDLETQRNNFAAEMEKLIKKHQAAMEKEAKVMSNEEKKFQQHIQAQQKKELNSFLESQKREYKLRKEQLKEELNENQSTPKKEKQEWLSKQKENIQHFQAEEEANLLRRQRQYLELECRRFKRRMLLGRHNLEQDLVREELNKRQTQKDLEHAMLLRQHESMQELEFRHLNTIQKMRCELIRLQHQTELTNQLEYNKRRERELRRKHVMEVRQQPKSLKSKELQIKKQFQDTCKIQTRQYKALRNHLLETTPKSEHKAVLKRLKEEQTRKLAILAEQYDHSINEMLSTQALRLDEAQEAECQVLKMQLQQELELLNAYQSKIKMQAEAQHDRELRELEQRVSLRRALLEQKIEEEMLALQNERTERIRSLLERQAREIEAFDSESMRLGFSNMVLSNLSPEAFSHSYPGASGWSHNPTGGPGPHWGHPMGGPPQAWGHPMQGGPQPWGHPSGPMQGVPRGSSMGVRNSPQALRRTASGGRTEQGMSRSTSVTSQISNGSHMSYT

[7] = biological target: STE20-like serine/threonine-protein kinase (Homo sapiens, UniProt Q9H2G2); assay: Selectivity interaction (ActivX KiNativ screen (kinase selectivity in THP-1 cell lysates)) EUB0000639a SLK; format: subcellular; settings: lysate, at 0.04 µM
STE20-like serine/threonine-protein kinase, sequence (Q9H2G2 whole entry, looked up): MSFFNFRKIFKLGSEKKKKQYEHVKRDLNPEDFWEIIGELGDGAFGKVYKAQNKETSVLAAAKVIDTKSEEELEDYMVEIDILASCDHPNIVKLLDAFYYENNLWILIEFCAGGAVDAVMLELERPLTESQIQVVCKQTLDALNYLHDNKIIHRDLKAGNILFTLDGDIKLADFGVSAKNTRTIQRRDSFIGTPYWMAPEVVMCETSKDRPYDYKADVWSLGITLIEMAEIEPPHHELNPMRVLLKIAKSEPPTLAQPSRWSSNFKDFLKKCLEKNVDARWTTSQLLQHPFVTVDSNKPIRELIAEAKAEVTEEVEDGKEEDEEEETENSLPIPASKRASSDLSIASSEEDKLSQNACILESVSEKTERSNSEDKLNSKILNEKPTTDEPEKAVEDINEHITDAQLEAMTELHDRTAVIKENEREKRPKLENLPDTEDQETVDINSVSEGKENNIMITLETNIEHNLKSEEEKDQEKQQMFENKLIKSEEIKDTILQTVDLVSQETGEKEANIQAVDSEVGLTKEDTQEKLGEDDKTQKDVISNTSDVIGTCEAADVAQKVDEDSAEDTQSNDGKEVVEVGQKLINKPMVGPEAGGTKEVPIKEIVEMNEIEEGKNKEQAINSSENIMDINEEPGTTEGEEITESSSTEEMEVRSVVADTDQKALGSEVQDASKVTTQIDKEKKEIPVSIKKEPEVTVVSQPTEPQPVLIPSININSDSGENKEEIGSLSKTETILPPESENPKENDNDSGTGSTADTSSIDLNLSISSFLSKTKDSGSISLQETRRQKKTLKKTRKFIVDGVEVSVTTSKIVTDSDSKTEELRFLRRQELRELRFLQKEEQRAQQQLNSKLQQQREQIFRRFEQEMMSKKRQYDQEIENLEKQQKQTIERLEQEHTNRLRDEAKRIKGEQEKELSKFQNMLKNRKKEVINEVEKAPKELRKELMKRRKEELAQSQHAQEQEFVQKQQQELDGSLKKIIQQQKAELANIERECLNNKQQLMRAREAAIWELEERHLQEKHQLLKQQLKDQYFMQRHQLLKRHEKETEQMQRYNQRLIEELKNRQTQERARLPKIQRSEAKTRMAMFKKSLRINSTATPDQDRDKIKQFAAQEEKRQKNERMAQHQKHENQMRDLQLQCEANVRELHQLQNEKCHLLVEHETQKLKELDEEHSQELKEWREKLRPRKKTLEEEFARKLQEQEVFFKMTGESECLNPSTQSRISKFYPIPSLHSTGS

SRSF protein kinase 2 (Homo sapiens), sequence (P78362 whole entry, looked up): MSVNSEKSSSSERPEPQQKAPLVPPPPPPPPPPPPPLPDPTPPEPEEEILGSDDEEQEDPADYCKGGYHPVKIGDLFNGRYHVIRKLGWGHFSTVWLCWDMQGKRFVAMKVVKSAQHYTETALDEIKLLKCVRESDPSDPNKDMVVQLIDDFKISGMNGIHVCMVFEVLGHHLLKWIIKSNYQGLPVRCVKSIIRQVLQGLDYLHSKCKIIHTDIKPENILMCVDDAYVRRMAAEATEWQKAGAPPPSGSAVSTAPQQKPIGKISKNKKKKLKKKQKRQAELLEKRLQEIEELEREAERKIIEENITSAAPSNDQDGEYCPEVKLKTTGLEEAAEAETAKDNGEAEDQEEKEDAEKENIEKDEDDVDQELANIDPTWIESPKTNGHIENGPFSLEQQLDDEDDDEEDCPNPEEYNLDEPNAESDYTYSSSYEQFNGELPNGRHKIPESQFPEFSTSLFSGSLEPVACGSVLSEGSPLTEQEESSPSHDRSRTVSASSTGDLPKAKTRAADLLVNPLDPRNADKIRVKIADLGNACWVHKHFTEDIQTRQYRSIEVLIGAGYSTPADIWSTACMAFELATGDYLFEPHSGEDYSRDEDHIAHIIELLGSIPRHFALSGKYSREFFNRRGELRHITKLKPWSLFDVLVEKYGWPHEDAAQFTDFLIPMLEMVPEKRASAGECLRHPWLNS
Beta-1 adrenergic receptor, sequence (P08588 whole entry, looked up): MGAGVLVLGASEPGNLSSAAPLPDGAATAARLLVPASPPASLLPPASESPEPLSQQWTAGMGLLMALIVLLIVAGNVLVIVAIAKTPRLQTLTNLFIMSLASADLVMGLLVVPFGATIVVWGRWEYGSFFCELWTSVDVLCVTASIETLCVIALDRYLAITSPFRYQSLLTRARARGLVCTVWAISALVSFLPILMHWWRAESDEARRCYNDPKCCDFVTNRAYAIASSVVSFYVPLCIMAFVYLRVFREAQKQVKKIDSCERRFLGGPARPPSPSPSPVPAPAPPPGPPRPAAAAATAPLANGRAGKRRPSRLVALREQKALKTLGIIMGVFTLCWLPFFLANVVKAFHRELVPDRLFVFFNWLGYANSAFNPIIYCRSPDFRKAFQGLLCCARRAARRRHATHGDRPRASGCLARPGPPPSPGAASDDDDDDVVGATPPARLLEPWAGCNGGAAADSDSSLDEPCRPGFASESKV

Work on `COc1cc(N(C)c2ccnc3ccc(C(F)(F)F)cc23)cc(OC)c1OC` yielded a % binding [1] of 94%.

Compound `Nc1cnc(N2CCc3cc(S(=O)(=O)Nc4c(F)cc(Cl)cc4F)cc(N4CCCC4=O)c32)nc1` [TP-020n] has a % of inhibition [2] of 8.84%.

`CC(=O)c1cc(-c2ccccc2OCC2CC2)c2ncccn12` showed a % of control [3] of 105%.

`COc1cc(Nc2nc(C)cc(-c3cnn4nc(OC)ccc34)n2)cc(C(F)(F)F)c1` showed a % of control [4] of 65%.

`CC(=O)Nc1cccc(-n2c(=O)n(C3CC3)c(=O)c3c(Nc4ccc(I)cc4F)n(C)c(=O)c(C)c32)c1` gave a % of control [5] of 74%.

`N#Cc1cccc(-c2c[nH]c3ncnc(N4CCOCC4)c23)c1` was tested, and the % of inhibition [6] was 6%.

`CC[C@@H]1[C@H](F)C(=O)N[C@@H]1COc1nccc2cc(C(N)=O)c(OC)cc12` [ZIMLOVISERTIB] was tested, and the % of inhibition [7] was -0.4%.
